Experimental findings from ChEMBL document CHEMBL3045620, “Trypsin inhibitory potential and microbial transformation of rutin isolated from Citrus sinensis” (Med Chem Res, 2013) are described below.

Type in all cases: protein assay
The target in experiment [1] is T1, Trypsin (Homo sapiens, UniProt P07477+P07478+P35030). The experiment in a line: Non-competitive inhibition of trypsin (unknown origin) using BApNA as substrate by Lineweaver-Burk/Dixon plot analysis.
In experiment [2] the target is T1, Trypsin. The experiment in a line: Inhibition of trypsin (unknown origin) using BApNA as substrate incubated for 15 min prior to substrate addition measured after 30 min by UV/VIS spectrophotometric analysis.
Experiment [3] addresses T1, Trypsin. The experiment in a line: Inhibition of trypsin (unknown origin) using BApNA as substrate at 2 mg/ml incubated for 15 min prior to substrate addition measured after 30 min by UV/VIS spectrophotometric analysis.

Usually Ki stands for a dissociation constant, usually derived from enzyme kinetics or from competition with a known ligand. Higher therefore signals lower affinity. The term IC50 denotes the concentration needed to halve the response being measured. Lower therefore signals higher potency. As usually defined, the inhibition is the percentage by which the read-out fell short of the control.

Take `O=c1c(O)c(-c2ccc(O)c(O)c2)oc2cc(O)cc(O)c12` [QUERCETIN]: the inhibition constant Ki at Trypsin [1] was determined as 13.1 µM. Moreover, the concentration for half-maximal inhibition (IC50) against Trypsin [2] turned out to be 19 µM. On Trypsin [3], this molecule registered an inhibition of 84.1%.

As for `C[C@@H]1O[C@@H](OC[C@H]2O[C@@H](Oc3c(-c4ccc(O)c(O)c4)oc4cc(O)cc(O)c4c3=O)[C@H](O)[C@@H](O)[C@@H]2O)[C@H](O)[C@H](O)[C@H]1O` [RUTIN], the inhibitory constant (Ki) at Trypsin [1] was 17.5 µM. At Trypsin [2], this molecule registered an IC50 of 16 µM. In addition, the inhibition at Trypsin [3] amounted to 75.2%.

`O=S(=O)(F)Cc1ccccc1` [PHENYLMETHYLSULFONYLFLUORIDE] showed a 50% inhibitory concentration (IC50) against Trypsin [2] of 110 µM. In addition, the inhibition against Trypsin [3] turned out to be 87.4%.
